Seven molecules from ChEMBL document CHEMBL1201862, “PubChem BioAssay data set” (2004) can be followed below.

Test systems include ACHN; BT-549; CCRF-CEM; HCT-15; IGROV-1; M14; MDA-MB-231; MDA-MB-435; MOLT-4; NCI-H226; NCI-H23; NCI-H522; OVCAR-4; OVCAR-5; SK-MEL-28; SK-OV-3; SNB-19; T47D; TK-10; UACC-257.
What all share (experiment): inhibition of tumour cell growth, NCI panel, 48 h

Molecules are shown by their SMILES.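 1) Cells in 96-well plates. 2) Compound, 48 h, 5 concentrations. 3) Linear interpolation between surrounding doses. 4) Unreached endpoint = highest concentration. GI50 = concentration required for 50% inhibition of growth.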 Active and inactive are the calls of the source. Cut-off read from the data, not from the text of the source: active = GI50 up to about 1.1 µM and inactive = higher.

On to `N=c1ccn2c(n1)OC1C(OP(=O)(O)O)C(CO)OC12` (stereo not given), for which the GI50 in the assay on ACHN was 1.06 µM (active); in the assay with BT-549 it was > 100 µM (inactive); in the assay with CCRF-CEM, 0.0467 µM (active); with HCT-15, > 100 µM; in the assay with IGROV-1, > 80.7 µM (inactive); in the assay with M14, 1.02 µM (active). For the same molecule, the GI50 in the assay on MDA-MB-231 is > 100 µM (inactive); with MDA-MB-435, > 100 µM (inactive); with MOLT-4 it was 0.147 µM (active); in the assay with NCI-H226, > 100 µM (inactive); with NCI-H23, 6.93 µM (inactive); with NCI-H522, > 80.4 µM (inactive). Also, the GI50 in the assay on OVCAR-4 was > 100 µM (inactive); in the assay with OVCAR-5, > 100 µM (inactive); in the assay with SK-MEL-28, > 83.4 µM (inactive); with SK-OV-3 it was > 53.6 µM (inactive); in the assay with SNB-19, 25 µM (inactive); in the assay on T47D, > 100 µM (inactive). The results for the GI50 in the assay with TK-10 and in the assay on UACC-257 were > 100 µM (inactive) and > 30.2 µM (inactive), respectively.

Take `COC(=O)c1ccccc1CC1Cc2cc3c(cc2C1=O)CCC3` (stereo not given): the GI50 is 27.7 µM (inactive) with ACHN; 10.8 µM (inactive) with BT-549; 6.53 µM (inactive) in the assay on CCRF-CEM; 4.02 µM in the assay on HCT-15; 16 µM (inactive) in the assay on IGROV-1; 10.4 µM (inactive) with M14. Also, the GI50 with MDA-MB-231 was 8.85 µM (inactive); in the assay on MDA-MB-435, 1.95 µM (inactive); in the assay with MOLT-4, 5.11 µM (inactive); in the assay with NCI-H226 it was 18.5 µM (inactive); in the assay with NCI-H23 it was 19.3 µM (inactive); in the assay on NCI-H522, 5.28 µM (inactive). The GI50 in the assay with OVCAR-4 was 19.2 µM (inactive); with OVCAR-5, 26.5 µM (inactive); in the assay with SK-MEL-28 it was 17.8 µM (inactive); in the assay with SK-OV-3, 18.5 µM (inactive); with SNB-19, 21.4 µM (inactive); in the assay with T47D, 16 µM (inactive). Besides, the results for the GI50 in the assay on TK-10 and in the assay on UACC-257 were 16.5 µM (inactive) and 19.3 µM (inactive), respectively.

As to `c1ccc(C2=Nn3c(CCCCCCCCc4nnc5n4N=C(c4ccccc4)CS5)nnc3SC2)cc1`, the GI50 was 40.6 µM (inactive) in the assay on ACHN; > 57.7 µM (inactive) in the assay on BT-549; 22.6 µM (inactive) in the assay with CCRF-CEM; > 100 µM in the assay on HCT-15; > 100 µM (inactive) in the assay with IGROV-1; 37.6 µM (inactive) with M14. Also, the GI50 in the assay with MDA-MB-231 was 22.9 µM (inactive); with MDA-MB-435 it was > 100 µM (inactive); with MOLT-4, 32.4 µM (inactive); in the assay on NCI-H226, 72.1 µM (inactive); in the assay with NCI-H23 it was > 74.6 µM (inactive); in the assay with NCI-H522, 40.2 µM (inactive). For the same molecule, the GI50 in the assay with OVCAR-4 was > 100 µM (inactive); in the assay on OVCAR-5, > 75.9 µM (inactive); in the assay with SK-MEL-28 it was > 100 µM (inactive); in the assay on SK-OV-3, 25.9 µM (inactive); with SNB-19, 18.4 µM (inactive); in the assay with T47D it was > 92.9 µM (inactive). Further, the values for the GI50 with TK-10 and in the assay with UACC-257 were 29.2 µM (inactive) and > 100 µM (inactive), respectively.

Consider `O=S(=O)(NNc1ccccc1)c1ccccc1`, for which the GI50 in the assay with ACHN is 0.662 µM (active); in the assay on BT-549, 19.2 µM (inactive); in the assay with CCRF-CEM, 14.3 µM (inactive); in the assay on HCT-15, 11.5 µM; with IGROV-1 it was 10.2 µM (inactive); with M14 it was 0.671 µM (active). Moreover, the GI50 with MDA-MB-231 is 1.36 µM (inactive); in the assay on MDA-MB-435, 4.81 µM (inactive); in the assay with MOLT-4 it was 26.5 µM (inactive); in the assay with NCI-H226, 4.12 µM (inactive); with NCI-H23 it was 25.5 µM (inactive); with NCI-H522, 8.95 µM (inactive). Further, the GI50 in the assay on OVCAR-4 was 2.62 µM (inactive); in the assay with OVCAR-5 it was 17.1 µM (inactive); in the assay with SK-MEL-28 it was 48.2 µM (inactive); in the assay with SK-OV-3 it was 65.3 µM (inactive); with SNB-19, 39.7 µM (inactive); in the assay on T47D, 12.6 µM (inactive). Further, the GI50 was > 100 µM (inactive) in the assay on TK-10 and 27.5 µM (inactive) in the assay on UACC-257.

As to `O=C(/C=C\c1ccc([N+](=O)[O-])cc1)c1ccccc(=O)c1O`, the GI50 with ACHN is 1.01 µM (active); in the assay with BT-549 it was 1.72 µM (inactive); in the assay on CCRF-CEM it was < 0.0319 µM (active); with HCT-15, 0.169 µM; with IGROV-1, 1.14 µM (inactive); in the assay with M14, 1.29 µM (inactive). The GI50 in the assay on MDA-MB-231 is 3.37 µM (inactive); in the assay with MDA-MB-435, 0.989 µM (active); in the assay with MOLT-4 it was 0.721 µM (active); in the assay on NCI-H226, 1.65 µM (inactive); in the assay with NCI-H23, 2.33 µM (inactive); in the assay on NCI-H522 it was 1.39 µM (inactive). Further, the GI50 in the assay on OVCAR-4 is 2.47 µM (inactive); with OVCAR-5 it was 2.55 µM (inactive); with SK-MEL-28, 1.41 µM (inactive); in the assay on SK-OV-3, 4.3 µM (inactive); in the assay on SNB-19, 4.65 µM (inactive); in the assay on T47D, 2.67 µM (inactive). For the same molecule, the GI50 with TK-10 is 2.49 µM (inactive); with UACC-257 it was 1.77 µM (inactive).

For `CC1(C)[C@@H]2C[C@H]1c1cnc(-c3ccccn3)cc1C2[C@@H]1c2cc(-c3ccccn3)ncc2[C@@H]2C[C@H]1C2(C)C` (stereo not given in full), the GI50 with ACHN is 40.5 µM (inactive); with BT-549, > 100 µM (inactive); in the assay on CCRF-CEM, 47.5 µM (inactive); in the assay on HCT-15, 24.5 µM; in the assay with IGROV-1, 25.2 µM (inactive); with M14, 38 µM (inactive). For the same molecule, the GI50 is > 100 µM (inactive) in the assay on MDA-MB-231; 76 µM (inactive) with MDA-MB-435; 44 µM (inactive) in the assay on MOLT-4; 28.4 µM (inactive) in the assay on NCI-H226; 41.2 µM (inactive) with NCI-H23; 25.3 µM (inactive) in the assay on NCI-H522. Further, the GI50 with OVCAR-4 is 20.6 µM (inactive); in the assay on OVCAR-5, > 100 µM (inactive); with SK-MEL-28, 88.3 µM (inactive); with SK-OV-3, 73.6 µM (inactive); in the assay on SNB-19, 69.3 µM (inactive); in the assay on T47D, 55.1 µM (inactive). The figures for the GI50 in the assay with TK-10 and in the assay on UACC-257 were 16.6 µM (inactive) and 87.9 µM (inactive), respectively.

Regarding `CC(=O)O[C@@H]1C(C2CCCCC2)C=[N+]([O-])O[C@@H]1OC1CCCC1(c1ccccc1)c1ccccc1` (stereo not given in full), the GI50 in the assay on ACHN was 2.21 µM (inactive); with BT-549, 12.4 µM (inactive); with CCRF-CEM it was 2.63 µM (inactive); in the assay on HCT-15, 1.92 µM; in the assay on IGROV-1, 3.21 µM (inactive); in the assay on M14, 5.31 µM (inactive). Further, the GI50 with MDA-MB-231 was 8.45 µM (inactive); in the assay on MDA-MB-435, 3.06 µM (inactive); in the assay on MOLT-4, 3.32 µM (inactive); with NCI-H226, 16.6 µM (inactive); in the assay with NCI-H23 it was 11 µM (inactive); in the assay on NCI-H522, 2.07 µM (inactive). For the same molecule, the GI50 was 7.98 µM (inactive) in the assay on OVCAR-4; 15.8 µM (inactive) with OVCAR-5; 2.32 µM (inactive) with SK-MEL-28; 15.7 µM (inactive) in the assay with SK-OV-3; 16.5 µM (inactive) with SNB-19; 2.45 µM (inactive) in the assay with T47D. Also, the GI50 is 14.5 µM (inactive) in the assay on TK-10 and 14.9 µM (inactive) with UACC-257.
